Measured values as given in the NIST ThermoML archive (doi:10.1016/j.jct.2017.12.023).

Assay: refractive index (Na D-line) (dimensionless); xn = mol fraction of the nth substance listed
Conditions: 100 kPa, Liquid, Standard Abbe refractometry

CCOS(=O)(=O)[O-].CCn1cc[n+](C)c1 [1-ethyl-3-methylimidazolium ethyl sulfate] + CCCCCCO
refractive index
Conditions | x1 = 0.1016 | x1 = 0.2016 | x1 = 0.3005 | x1 = 0.3989 | x1 = 0.4975 | x1 = 0.5956 | x1 = 0.6647 | x1 = 0.7947 | x1 = 0.897 | x1 = 1
288.15 K | 1.42855 | 1.43639 | 1.44364 | 1.45017 | 1.45653 | 1.46223 | 1.46592 | 1.47274 | 1.47731 | 1.48155
293.15 K | 1.42666 | 1.4346 | 1.44194 | 1.44856 | 1.45499 | 1.46075 | 1.46447 | 1.47132 | 1.47593 | 1.48018
298.15 K | 1.42478 | 1.43283 | 1.44025 | 1.44701 | 1.45346 | 1.45927 | 1.46303 | 1.4699 | 1.47456 | 1.47882
303.15 K | 1.4229 | 1.43107 | 1.43858 | 1.44545 | 1.45193 | 1.4578 | 1.4616 | 1.46848 | 1.4732 | 1.47746
308.15 K | 1.42103 | 1.42932 | 1.43692 | 1.44387 | 1.4504 | 1.45631 | 1.46017 | 1.46706 | 1.47182 | 1.47611
313.15 K | 1.41917 | 1.42758 | 1.43525 | 1.44225 | 1.44886 | 1.45481 | 1.45872 | 1.46564 | 1.47044 | 1.47474
318.15 K | 1.41729 | 1.42582 | 1.43358 | 1.44065 | 1.44735 | 1.45333 | 1.45726 | 1.46423 | 1.46907 | 1.47341
323.15 K | 1.41543 | 1.42407 | 1.43195 | 1.4391 | 1.44582 | 1.45184 | 1.45582 | 1.46285 | 1.46769 | 1.47206

CCOS(=O)(=O)[O-].CCn1cc[n+](C)c1 [1-ethyl-3-methylimidazolium ethyl sulfate] + CN1CCCC1=O
refractive index
Conditions | 288.15 K | 293.15 K | 298.15 K | 303.15 K | 308.15 K | 313.15 K | 318.15 K | 323.15 K | 328.15 K | 333.15 K
x1 = 0.1009 | 1.47616 | 1.47418 | 1.47223 | 1.47026 | 1.46833 | 1.46634 | 1.4644 | 1.46246 | 1.46054 | 1.45863
x1 = 0.2012 | 1.47863 | 1.47679 | 1.47496 | 1.47313 | 1.4713 | 1.46948 | 1.46772 | 1.4659 | 1.46409 | 1.46232
x1 = 0.3021 | 1.47981 | 1.47807 | 1.47633 | 1.4746 | 1.47285 | 1.47118 | 1.4695 | 1.46777 | 1.46607 | 1.46438
x1 = 0.4012 | 1.48047 | 1.47881 | 1.47714 | 1.47547 | 1.47384 | 1.47225 | 1.47069 | 1.46906 | 1.46742 | 1.46584
x1 = 0.4973 | 1.48086 | 1.47925 | 1.47766 | 1.47608 | 1.47453 | 1.473 | 1.47143 | 1.46985 | 1.46828 | 1.46677
x1 = 0.596 | 1.48094 | 1.47939 | 1.47787 | 1.47635 | 1.47488 | 1.47343 | 1.47195 | 1.47045 | 1.46895 | 1.46746
x1 = 0.6998 | 1.48099 | 1.47951 | 1.47804 | 1.47659 | 1.47517 | 1.47375 | 1.47229 | 1.47084 | 1.46939 | 1.46794
x1 = 0.7961 | 1.48127 | 1.47983 | 1.47841 | 1.47701 | 1.47561 | 1.47423 | 1.47284 | 1.47143 | 1.47005 | 1.46865
x1 = 0.8821 | 1.48147 | 1.48006 | 1.47867 | 1.47728 | 1.47592 | 1.47453 | 1.47317 | 1.4718 | 1.47044 | 1.4691
x1 = 1 | 1.48155 | 1.48018 | 1.47882 | 1.47746 | 1.47611 | 1.47474 | 1.47341 | 1.47206 | 1.47075 | 1.46943
